Holding throughout (type): physicochemical
Data set [1] in a line: Moisture balance / relative humidity exposure of efaproxiral sodium solid forms. Conditions: for solid form after relative humidity is decreased to 5%: RH lowered to about 5% RH, sodium salt. Here is the method: Approximately 100 mg of efaproxiral sodium Form A was placed in a 20 mL glass vial. The vial was placed, uncapped, in an ambient temperature relative humidity jar at 75% relative humidity for approximately 24 hours.
A quantity of Form A was placed on a weigh pan at about 0% relative humidity (RH). The RH was slowly raised to about 95% (adsorption) and was then lowered back to about 5% RH (desorption). The weight of the solid material was measured throughout. The results are depicted in FIG. 10. […] The resulting Form I loses slightly less than 4 moles of water as the humidity is further lowered to about 5% RH.

A short description of data set [2]: Solid form remaining after heating or drying (XRPD). As to the method:
XRPD analyses were carried out on a Shimadzu XRD-6000 X-ray powder diffractometer using Cu Kα radiation. The instrument is equipped with a long fine focus X-ray tube. The tube voltage and amperage were set at […] and 40 mA, respectively. The divergence and scattering slits were set at 1° and the receiving slit was set at 0.15 mm. Diffracted radiation was detected by a […] scintillation detector. A theta-two theta continuous scan at 3′/min (0.4 sec/0.02° step) from 2.5 to 40 °2θ was used. A silicon standard was analyzed each day to check the instrument alignment. Samples were analyzed with an aluminum/silicon sample holder.
Efaproxiral sodium Form A (1125.7 mg) was dissolved completely in […] of ethanol at 48° C. Acetone (7600 μL) was slowly added over a one minute period. Form G and Form Q formed in the reactor at this time. After 1 minute 50 seconds, a further 6250 μL of acetone was added and the reactor was allowed to cool to approximately 25° C. and then to approximately 15° C. The solid material in the reactor during this interval was Form Q. After approximately 10 minutes had passed from the initial addition of acetone, the resulting powdery white solid was collected by vacuum filtration, washed with 6000 μL acetone and dried in a 52° C. vacuum oven.

Data set [3] can be described thus: Thermogravimetric analysis (TGA) of solvated forms, ambient to 165° C. Conditions: for TGA weight loss: temperature raised from ambient to 165° C., sodium salt. As to the method:
A screen for polymorphs and solvates of efaproxiral sodium was performed using a variety of crystallization techniques. The resulting polymorphs were analyzed using a number of analytical techniques well known in the art for their ability to differentiate between different polymorphs, including thermogravimetric analysis (TGA), reflectance Fourier transform infrared (FTIR) spectroscopy (see EXAMPLE 2), and X-ray powder diffraction (XRPD) (see EXAMPLE 3). TGA is often very useful for distinguishing between different solid forms of a material because the temperature(s) at which a physical change in a material occurs is usually characteristic of the polymorph or solvate. X-Ray Powder Diffraction (XRPD) is a technique that detects long-range and short-range order in a crystalline material. IR spectroscopy also detects both intramolecular and intermolecular bonding in solids, and further provides information regarding the chemical composition of the crystalline material.

[4] abbreviates: Form A exposed to approximately 95% humidity.

Structures are written as SMILES.

Regarding `Cc1cc(C)cc(NC(=O)Cc2ccc(OC(C)(C)C(=O)[O-])cc2)c1.[Na+]` [Form A, 2-[4-[2-[(3,5-dimethylphenyl)amino]-2-oxoethyl]phenoxy]-2-methyl-propionic acid, sodium salt], the “water uptake equivalent to weight gain” value is “approximately 7 moles of water/mole efaproxiral sodium” in data set [1] (setting [4]) and “about 4 moles of water/mole efaproxiral sodium” in data set [1] (Form A incubated at high relative humidity). In addition, the weight gain result in data set [1] (setting [4]) is “approximately 34%”; in data set [1] (Form A incubated at high relative humidity (75% RH, ambient temperature, approximately 24 hours)), “approximately 20%”. The “water gained (adsorption)” value in data set [1] (RH raised from about 0% to about 85% RH, converts to Form I) is “about 4 moles of water/mole efaproxiral sodium”. For the same compound, in data set [1] (high relative humidity), the “solid form after incubation at high relative humidity” value is “Form I”. The “further water gained (adsorption)” value in data set [1] (humidity raised further to about 95% RH, converts to Form J) was “about 3 moles of water/mole efaproxiral sodium”.
Consider `Cc1cc(C)cc(NC(=O)Cc2ccc(OC(C)(C)C(=O)[O-])cc2)c1.[Na+]` [Form F, 2-[4-[2-[(3,5-dimethylphenyl)amino]-2-oxoethyl]phenoxy]-2-methyl-propionic acid, sodium salt], for which the “removal of lattice solvent (methanol) by heating” value in data set [2] (80° C. for approximately 3 hours) is “can be removed”.
Consider `Cc1cc(C)cc(NC(=O)Cc2ccc(OC(C)(C)C(=O)[O-])cc2)c1.[Na+]` [Form I, 2-[4-[2-[(3,5-dimethylphenyl)amino]-2-oxoethyl]phenoxy]-2-methyl-propionic acid, sodium salt], for which the “solid form after relative humidity is decreased to 5%” value in data set [1] was “amorphous efaproxiral sodium”. For the same compound, in data set [1] (humidity further lowered to about 5% RH), the “water lost (desorption)” value is given as “less than 4 moles of water”.
On to `Cc1cc(C)cc(NC(=O)Cc2ccc(OC(C)(C)C(=O)[O-])cc2)c1.[Na+]` [Form J, 2-[4-[2-[(3,5-dimethylphenyl)amino]-2-oxoethyl]phenoxy]-2-methyl-propionic acid, sodium salt], for which the “solid form after relative humidity is decreased to 5%” value in data set [1] is on record as “Amorphous material”. The “water lost (desorption)” value in data set [1] (humidity lowered from about 95% to about 20% RH, converts to Form I) was “about 3 moles of water/mole efaproxiral sodium”.
In the case of `Cc1cc(C)cc(NC(=O)Cc2ccc(OC(C)(C)C(=O)[O-])cc2)c1.[Na+]` [Form P, 2-[4-[2-[(3,5-dimethylphenyl)amino]-2-oxoethyl]phenoxy]-2-methyl-propionic acid, sodium salt], in data set [3] (ambient to 165° C.), the “solvent loss equivalent to TGA weight loss” value was “about 1 mole of ethanol per mole of efaproxiral sodium”. Further, the TGA weight loss result in data set [3] was “approximately 10.6%”. Besides, the “solid form remaining after heating (XRPD)” value in data set [2] (heated to 156° C.) is reported as “Form A”.
On to `Cc1cc(C)cc(NC(=O)Cc2ccc(OC(C)(C)C(=O)[O-])cc2)c1.[Na+]` [Form Q, 2-[4-[2-[(3,5-dimethylphenyl)amino]-2-oxoethyl]phenoxy]-2-methyl-propionic acid, sodium salt], for which, in data set [3] (ambient to about 165° C.), the “solvent loss equivalent to TGA weight loss” value was “½ to about ⅓”. Further, the TGA weight loss entry in data set [3] is on record as “approximately 5.7%”. Also, the “solid form after drying” value in data set [2] (52° C. vacuum oven, 14 hours of drying) is “Form Q”; in data set [2] (52° C. vacuum oven, 32 hours of drying), “Form Q”; in data set [2] (dried at 70° C. under vacuum), “Form B”. Further, the “solid form remaining after heating (XRPD)” value in data set [2] (heated to about 165° C.) is recorded as “Form A”.

Source of the values: patent US20070299136A1, “Crystalline and Amorphous Forms of Efaproxiral Sodium” (priority 2004, published 2007).
